Laboratory results published in patent US20130045991A1, “NEUROPROTECTIVE MODULATION OF NMDA RECEPTOR SUBTYPE ACTIVITIES” (THE UNIVERSITY OF BRITISH COLUMBIA, priority 2005, published 2013).
“Also recorded” adds a separate entry of the source.

How the values were obtained:
[1] = system: NMDA receptors (NR2A- and NR2B-containing); assay: Whole-cell currents evoked by NMDA in cultured cortical neurons; format: cell-based, rat; conditions: for percentage blockade of NMDA-induced currents, applied alone: NVP-AAM077 0.4 μM or Ro25-6981 0.5 μM bath applied alone, 10 μM glycine, 5 μM strychnine, -60 mV; for percentage blockade of NMDA-induced currents, applied alone / percentage blockade of NMDA-induced currents, applied after blockade by the other antagonist: 50 μM NMDA; for percentage blockade of NMDA-induced currents, applied after blockade by the other antagonist: sequential application, NVP-AAM077 0.4 μM, Ro25-6981 0.5 μM
cortical neurons [2] = assay: Neuronal apoptosis under basal, non-stimulated conditions; format: cell-based, rat; conditions: no bicuculline stimulation
Description: Under bicuculline incubation, the increased action potential-dependent synaptic release of glutamate may lead to activation of extrasynaptic NMDA receptors by glutamate spillover.
(§1) To visualize injured neurons, Hoechst-33342 (10 μg/ml) was added to the culture medium 20 h after treatments and incubated for 45 min at 37 °C. Images were taken with a Leica DMIRE2 fluorescence microscope. Quantitative assessment of neuronal apoptosis was performed 20 h following treatments using a Cell Death Detection […] Kit (Roche Applied Science). Absorbance readings were determined using a spectrophotometric microplate reader. Data analyses were carried out according to the manufacturer's instructions. Data are expressed as the difference in apoptosis relative to control and are expressed as a percentage.

cortical neurons [3] = assay: Glycine pretreatment before NMDA-induced neuronal apoptosis; format: cell-based, rat; conditions: co-applied with glycine; NVP-AAM077 0.4 μM, Ro25-6981 0.5 μM
Description: Mature neurons (11-14 DIV) were used for experiments.
as §1

cortical cultures = assay: Oxygen and glucose deprivation (OGD), in vitro stroke model; format: cell-based, rat; conditions: 1 h OGD; NVP-AAM077 0.4 μM or Ro 25-6981 0.5 μM; apoptosis 20 h after OGD
Description: Taking advantage of the finding of the opposing roles of NR2A- and NR2B-containing NMDA receptors in mediating cell survival and death, one aspect of the invention involves modulating the activity of the two subpopulations of receptors to ameliorate neuronal injury following acute brain insults, such as stroke and brain trauma. To illustrate this aspect of the invention, we employed a well-characterized in vitro stroke model, oxygen and glucose deprivation (OGD) (Goldberg et al., 1993; Aarts et al., 2002). Cortical cultures of 11-14 DIV were exposed to an anaerobic atmosphere for 1 h in a glucose-free solution in the absence or the presence of either NVP-AAM077 (0.4 μM) or Ro 25-6981 (0.5 μM). Neuronal apoptosis was quantitatively determined 20 h after OGD.
To visualize injured neurons, Hoechst-33342 (10 μg/ml) was added to the culture medium 20 h after treatments and incubated for 45 min at 37 °C. Images were taken with a Leica DMIRE2 fluorescence microscope. Quantitative assessment of neuronal apoptosis was performed 20 h following treatments using a Cell Death Detection ELISAPLUS Kit (Roche Applied Science). Absorbance readings were determined using a spectrophotometric microplate reader. Data analyses were carried out according to the manufacturer's instructions. Data are expressed as the difference in apoptosis relative to control and are expressed as a percentage. […]

[4] = system: middle cerebral artery occlusion (MCAo); assay: MCAo focal ischemic stroke model, pretreatment; format: in vivo, rat; conditions: for neurological function (behavioral tests) / infarct area: i.v. 30 min before 1-h MCAo; for neurological function (behavioral tests): 24 h after onset; for infarct area: NVP-AAM077 2.4 mg/kg, Ro 25-6981 6 mg/kg, 24 h
Description: This aspect of the invention was also illustrated in vivo using a rat focal ischemic stroke model—middle cerebral artery occlusion (MCAo) (Aarts et al., 2002; Bederson et al., 1986). We first infused NVP-AAM077 (2.4 mg/kg), Ro 25-6981 (6 mg/kg (Loschmann et. al., 2004)) or vehicle (saline) intravenously in the rats 30 min prior to stroke onset. The animals were then subjected to a 1-h transient ischemic stroke induced by MCAo. This relatively short duration of ischemia was chosen to unmask the potential neuroprotective effects mediated by NR2A-containing receptors activated during the stroke challenge. Neurological score and cerebral infarction were examined 24 h after the MCAo onset. […] Together, these observations indicate that both NR2A- and NR2B-containing NMDA receptor subtypes are activated during stroke, exerting opposing effects on ischemic brain damage.
(§2) Transient cerebral focal ischemia was produced by middle cerebral artery occlusion (MCAo) as described (Aarts et al., 2002; Bederson et al., 1986; Longa et al., 1989). Briefly, male Sprague-Dawley rats (Charles River Laboratories) weighing ˜300 g were anesthetized and MCAo was achieved by introducing a 3-0 monofilament suture into the MCA via the internal carotid artery. Body temperature was maintained at 37.0±0.5° C., and blood pressure and blood gases were monitored during the experiments. Animals were sacrificed 24 h following MCAo onset. Cerebral infarction was analyzed using brain sections stained with hematoxylin and eosin (H & E) or 2,3,5-triphenyltetrazolium chloride (TTC). 10 min before the animals were sacrificed, two tests, the postural reflex test to examine upper body posture (Bederson et al., 1986) and the forelimb placing test to examine sensorimotor integration in forelimb placing responses to visual, tactile, and proprioceptive stimuli (De Ryck et al., 1989), were performed to grade neurological function on a scale of 0 to 12 (0=normal, 12=worst). In the pretreatment study, a single bolus of drugs (NR2A-specific antagonist NVP-AAM077 (2.4 mg/kg) or NR2B specific antagonist Ro 25-6981 (6 mg/kg) or vehicle (saline)) was infused intravenously 30 min before a 1-h MCAo. For post-treatment experiments, animals were subjected to a 1.5-h MCAo and drug treatments (glycine, 800 mg/kg; NVP-AAM077 and Ro 25-6981 at the same doses as in the pretreatment study) were then given via intraperitoneal injection (i.p.) 3 h after reperfusion (4.5 h after the onset of MCAo).

[5] = system: middle cerebral artery occlusion (MCAo); assay: MCAo focal ischemic stroke model, post-ischemic treatment; format: in vivo, rat; conditions: for effect of co-administration on the glycine effect (infarct volume reduction): co-administered with glycine 800 mg/kg 4.5 h after stroke onset
Description: In some clinical settings, it is desirable to implement therapy after the onset of neuronal injury, such as stroke or other ischemic events.
as §2
The activating effect on NR2A-containing receptors was mimicked with the application of the NMDA receptor co-agonist glycine in the presence of an […] NR2B antagonist. Glycine by itself potentiates the function of NMDA receptors that are activated by endogenously released glutamate from presynaptic terminals both in vitro and in vivo (Johnson et al., 1987; Lu et al., 2001; De et al., 2000).

Structure (SMILES) | percentage blockade of NMDA-induced currents, applied alone [1] | reduction in the percentage of NMDA current inhibition by Ro25-6981 following NVP-AAM077 blockade ([1]; alone vs after NVP-AAM077 0.4 μM) [%] | percentage blockade of NMDA-induced currents, applied after blockade by the other antagonist [1] | effect on NVP-AAM077 (48 h)-induced apoptosis (cortical neurons [2]) | neuronal apoptosis after incubation for 48 h (cortical neurons [2]) | effect on the neuroprotective effect of glycine pretreatment (cortical neurons [3]) | effect on OGD-induced neuronal apoptosis (cortical cultures) | decrease of total infarct volume compared with saline-treated animals ([4]; 6 mg/kg i.v. 30 min before 1-h MCAo, 24 h after MCAo onset) [%] | neurological function (behavioral tests) [4] | infarct area [4] | effect of co-administration on the glycine effect (infarct volume reduction) [5] | neuroprotection / total infarct volume compared with MCAo alone ([5]; given 3 h after 1.5-h MCAo (4.5 h after stroke onset), MK801 1 mg/Kg, glycine 800 mg/Kg, Ro 25-6981 6 mg/Kg) | neuronal apoptosis after incubation for 4 h (cortical neurons [2]) | increase in total infarct volume compared with saline-treated animals ([4]; 2.4 mg/kg i.v. 30 min before 1-h MCAo, 24 h after MCAo onset) [%] | effect of co-administration on the glycine effect (infarct volume reduction) ([5]; listed as NVP-AAM066)
C[C@@H](CN1CCC(Cc2ccccc2)CC1)[C@@H](O)c1ccc(O)cc1 (relative stereo) [Ro 25-6981, [R-(R*,S*)]-α-(4-Hydroxyphenyl)-β-methyl-4-(phenylmethyl)-1-piperidinepropanol] | 34.6%±1.8% | 5.6 | 29.0%±3.3% | prevented | did not increase neuronal apoptosis | not by affected | drastically reduced | 67.8±4.3 | significant protective effect | decreased | resistant | did not provide any noticeable neuroprotection; also recorded: ineffectiveness |  |  | 
C[C@H](NC(c1cccc2[nH]c(=O)c(=O)[nH]c12)P(=O)(O)O)c1ccc(Br)cc1 (some centres unmarked) [NVP-AAM077] | 42.9%±5.9% |  | 43.4%±12.4% |  | significant increase in neuronal apoptosis | prevented | significantly enhanced OGD-induced neuronal apoptosis |  | trend toward poorer neurological function | increased | abolished; also recorded: prevented |  | failed to increase neuronal apoptosis | 67.0±17.9 | abolished the neuroprotection offered by glycine
